# Assay results taken from patent US20180028552A1, “COMBINATION THERAPY FOR TREATING CANCER” (Epizyme, Inc., priority 2015, published 2018).
# Entries after “also recorded” stand apart in the source; their conditions may differ.
# Experiments:
# MV4-11 tumors = experiment: MV4-11 subcutaneous xenograft efficacy study in nude rats; format: in vivo, rat; conditions: single agent at the MTD (Azacitidine 2 mg/kg, Cytarabine 200 mg/kg), intraperitoneal once daily for 14 days
# Procedure: (§2) To follow up on these findings and to determine if combinations were tolerable and efficacious in vivo, nude rats implanted subcutaneously with MV4-11 tumors were dosed using a range of doses and schedules. […] In preparation for an efficacy combination study, the Azacitidine and Cytarabine single agent activity in a MV4-11 model was determined.
# (§3) 35 mg/kg/day EPZ-5676 was administered by continous IV (CIV) infusion while Azacitdine and Cytarabine was dosed daily by intraperitoneal injection at 2 and 200 mg/kg respectively. […] The tumor volumes are represented as the median tumor volumes mm^3 of the group.
# in vivo = conditions: nude, rat, ip
# Procedure: as §2, §3
# [1] = tested on: REH (non-rearranged control); experiment: Cell kill combination study in REH cells; format: cell-based; conditions: sensitive is defined as IC50 ≤ 3 μM
# MEIS1 = MEIS1 mRNA expression in MV4-11 cell line; format: cell-based; conditions: with increased concentrations (dose dependent)
# Procedure: FIGS. 1A-1D are a series of graphs that depict mRNA expression levels of MEIS1 (FIGS. 1A and 1C) and HOXA2 (FIGS. 1B and 1D) in the MV4-11 cell line following treatment with AZA (also referred to herein as Azacitidine) and EPZ-5676. The data depicted in FIGS. 1A and 1B are from assays in which various concentrations of EPZ-5676 or DMSO alone, in combination with 1 μM AZA QD×3, 0.3 μM AZA QD×3, or vehicle alone were contacted with the cultured MV4-11 cells. (QD=daily dosage; QD×3=three day treatment). […]
# [2] = tested on: histone H3K79 methylation; conditions: cited from earlier work
# ML-2 (MLL-AF6) cells [3] = experiment: Cellular differentiation assay in ML-2 cells; format: cell-based; conditions: for cellular differentiation (CD14+ differentiated cell population): 0.5 μM EPZ-5676, day not given
# NOMO-1 (MLL-AF9) cells [4] = experiment: Cell death / cell kill in NOMO-1 cells (Annexin V/7-AAD); format: cell-based; conditions: for resistance of cell line to the agent: sensitive is defined as IC50 ≤ 3 μM
# Procedure: (§1) FIGS. 4A-4H are a series of schematics and graphs that depict the effect on cellular differentiation of AZA priming in AML cell lines. […] FIG. 4C depicts AZA dose response curves for an AML cell line panel. […] For the flow cytometry assays, Annexin V/7-AAD staining was used to assess cell death, and CD11b/CD14 antibodies were used to evaluate cellular differentiation. […] Flow cytometry assays were also performed to assess cellular differentiation and cell death following AZA priming followed by treatment of the cells with 0.5 μM EPZ-5676.
# MV4-11 (MLL-AF4) cells [5] = experiment: Cellular differentiation assay (CD11b/CD14 flow cytometry) in MV4-11 cells; format: cell-based
# Procedure: FIGS. 4A-4H are a series of schematics and graphs that depict the effect on cellular differentiation of AZA priming in AML cell lines. FIGS. 4A and 4B are a series of schematics that depict the experimental setup of the assays performed to determine differentiation and cell death. FIG. 4C depicts AZA dose response curves for an AML cell line panel. FIGS. 4D-4G are a series of flow cytometry assays that were performed to assess cellular differentiation and cell death in the NOMO-1 acute myeloid leukemia cell line. For the flow cytometry assays, Annexin V/7-AAD staining was used to assess cell death, and CD11b/CD14 antibodies were used to evaluate cellular differentiation. […] Flow cytometry assays were also performed to assess cellular differentiation and cell death following AZA priming followed by treatment of the cells with 0.5 μM EPZ-5676.
# FIGS. 6A-6D are a series of flow cytometry graphs that depict cellular differentiation and cell death following treatment of MV4-11 (MLL-AF4) cells with vehicle or AZA priming followed by 0.5 μM EPZ-5676, or vehicle only conditions.
# ML-2 (MLL-AF6) cells [6] = experiment: Cell death / cell kill in ML-2 cells; format: cell-based; conditions: for cell death: 0.5 μM EPZ-5676, day not given
# NOMO-1 (MLL-AF9) cells [7] = experiment: Cellular differentiation assay (CD11b/CD14) in NOMO-1 cells; format: cell-based; conditions: 0.5 μM EPZ-5676; day not given
# Procedure: as §1
# RS4;11 (MLL-AF4) cells [8] = experiment: Cell death / cell kill in RS4;11 cells; format: cell-based; conditions: for cell death / cell kill: 0.5 μM EPZ-5676, day not given
# HOXA9 = HOXA9 expression; format: cell-based; conditions: dose dependent
# Source text: For example, a gene expression assay that can be used includes the steps of (1) culturing cells (e.g., EOL-1, KOPM-88, Molm13, MV411, LOUCY, SemK2, Reh, HL60, BV173, or Jurkat cells) in the presence or absence of a compound (e.g., Compound A2 and/or a DNMT inhibitor); (2) harvesting the cells; (3) extracting the RNA using methods known in the art (e.g., Qiagen RNeasy Kit); (4) synthesizing cDNA from the extracted RNA (e.g., Applied Biosystems reverse transcriptase kit); (5) preparing qPCR reactions using, for example, primers and probes (e.g., predesigned labeled primer and probe sets for HOXA9, FLT3, MEIS1, MEIS2, TBP, BCL, DOT1L, and β2-microglobulin from Applied Biosystems), synthesized sample cDNA, and qPCR master mix reagent (e.g., Applied Biosystems Taqman universal PCR master mix); (6) running samples on PCR machine (e.g., Applied Biosystems); (7) analysis of the data and calculation of relative gene expression.
# [9] = tested on: MLL rearranged leukemia xenograft; conditions: in vivo; cited from earlier work
# RS4;11 (MLL-AF4) cells [10] = experiment: Cellular differentiation assay in RS4;11 cells; format: cell-based; conditions: for cellular differentiation: 0.5 μM EPZ-5676, day not given
# MV4-11 (MLL-AF4) cells [11] = experiment: Cell death / cell kill in MV4-11 cells (Annexin V/7-AAD flow cytometry, CTG, cell count, Incucyte caspase 3/7); format: cell-based; conditions: for cell death in a dose response experiment: single agent dose response
# Source text: FIG. 2A depicts three experimental conditions: 1) MV4-11 cells were contacted with AZA for three consecutive days, followed by treatment with EPZ-5676 on the second, fourth, sixth, and ninth day; 2) the MV4-11 cells were contacted with vehicle for three consecutive days, followed by treatment with EPZ-5676 on the second, fourth, sixth, and ninth day; and 3) the MV4-11 cells were contacted with vehicle for three consecutive days, followed by contact with vehicle on the second, fourth, sixth, and ninth day.
# FIGS. 5A-5F are a series of graphs that depict real-time imaging to study the effect of AZA priming on MV4-11 cells utilizing Incucyte Zoom® for suspension cell imaging. […] The Kinetic Caspase 3/7 reagent was used to assess cell death (FIG. 5B). For these assays, 6,000 cells were plated per well of a 96-well plate and dosed with EPZ-5676 using a ten point concentration gradient starting from 10 μM. 1× caspase dye was then added to each well. FIG. 5C is a series of graphs that depict real-time monitoring of cell death using Caspase 3/7 kinetic dye. […] FIG. 5E is a series of graphs that depict real-time monitoring of AUC Growth by Red object (labeled cell) count. FIG. 5F is a series of graphs that depicts cellular AUC growth following vehicle or AZA priming followed by treatment with EPZ-5676, and control conditions including vehicle alone, DMSO.
# In this study of Example 1, the flexibility of treatment schedules when EPZ-5676 was combined with Azacitidine in MLL-r cells was evaluated.
# Compounds were evaluated for cell killing effects as single agents and in combination according to the methods described in the experimental setup.
# H3K79me2 = H3K79me2 ChIP-qPCR in MV4-11 cells; format: cell-based; conditions: 0.5 μM EPZ-5676; 0.5 μM QD×3 AZA
# Procedure: FIGS. 3A-3D are a series of graphs that contain data obtained from H3K79me2 ChIP-qPCR assays of MV4-11 (MLL-AF4) cells at various time points following exposure to either vehicle alone, vehicle and 0.5 μM EPZ-5676, or 0.5 μM QD×3 AZA and 0.5 μM EPZ-5676.
# [12] = 0.5 μM EPZ-5676 with or without AZA priming, day not given
# [13] = sensitive is defined as IC50 ≤ 3 μM
structure (smiles),measurement,setting,value
Nc1ccn([C@@H]2O[C@H](CO)[C@@H](O)[C@@H]2O)c(=O)n1 [Cytarabine],inhibition of subcutaneous MV4-11 tumor compared to vehicle control,MV4-11 tumors,50%
same,MTD at 14 days,in vivo,200 mg/kg
"CC(C)N(C[C@H]1O[C@@H](n2cnc3c(N)ncnc32)[C@H](O)[C@@H]1O)[C@H]1C[C@@H](CCc2nc3cc(C(C)(C)C)ccc3[nH]2)C1 [EPZ-5676, pinometostat]",resistance of cell line to the agent,[1],resistant
same,MEIS1 mRNA levels / expression,MEIS1,reduces
same,inhibition of intracellular histone H3K79 methylation,[2],selectively inhibits
same,cellular differentiation (CD14+ differentiated cell population),ML-2 (MLL-AF6) cells [3],no cell differentiation; also recorded: population as compared to no
same,differentiation,ML-2 (MLL-AF6) cells [3]; Day 6,No differentiation
same,differentiation,ML-2 (MLL-AF6) cells [3]; Day 10,No differentiation
same,cell death,"NOMO-1 (MLL-AF9) cells [4]; 0.5 μM EPZ-5676, day not given",no appreciable cell death
same,cell kill,NOMO-1 (MLL-AF9) cells [4]; Day 6,No cell kill with EPZ-
same,cell kill,NOMO-1 (MLL-AF9) cells [4]; Day 10,No cell kill with EPZ-
same,resistance of cell line to the agent,NOMO-1 (MLL-AF9) cells [4],resistant
same,cellular differentiation (CD14 positive population),MV4-11 (MLL-AF4) cells [5]; [12],no increase
same,CD11b+ cell population,MV4-11 (MLL-AF4) cells [5]; Day 6,Depletion of CD11b+ cell
same,CD14+ cell population,MV4-11 (MLL-AF4) cells [5]; Day 6,No increase in CD14+
same,CD11b+ cell population,MV4-11 (MLL-AF4) cells [5]; Day 10,Depletion of CD11b+
same,CD14+ cell population,MV4-11 (MLL-AF4) cells [5]; Day 10,No increase in CD14+—
same,cell death,ML-2 (MLL-AF6) cells [6],no cell death
same,cell kill,ML-2 (MLL-AF6) cells [6]; Day 6,No cell kill with EPZ-
same,cell kill,ML-2 (MLL-AF6) cells [6]; Day 10,No cell kill with EPZ-
same,resistance of cell line to the agent,ML-2 (MLL-AF6) cells [6]; [13],resistant
same,amount of CD14+ cells,NOMO-1 (MLL-AF9) cells [7],increase
same,cell death / cell kill,RS4;11 (MLL-AF4) cells [8],no cell death
same,cell kill,RS4;11 (MLL-AF4) cells [8]; Day 6,No cell kill with EPZ-
same,cell kill,RS4;11 (MLL-AF4) cells [8]; Day 10,No cell kill with EPZ-
same,resistance of cell line to the agent,RS4;11 (MLL-AF4) cells [8]; [13],resistant
same,HOXA9 expression,HOXA9,reduces
same,tumor response,[9],complete tumor regressions
same,cellular differentiation,RS4;11 (MLL-AF4) cells [10],no cell differentiation
same,differentiation,RS4;11 (MLL-AF4) cells [10]; Day 6,No differentiation
same,differentiation,RS4;11 (MLL-AF4) cells [10]; Day 10,No differentiation
same,cell death,MV4-11 (MLL-AF4) cells [11]; [12],no appreciable cell death
same,IC50,"MV4-11 (MLL-AF4) cells [11]; Homo sapiens, MV4-11, read-out: sensitivity of MV4-11 to EPZ-5676",≤ 3 µM
same,cell death in a dose response experiment,MV4-11 (MLL-AF4) cells [11],EPZ-5676 does not induce cell death in
same,"H3K79me2 signal / mark (ChIP-qPCR, MEIS1 and HOXA9 genes)",H3K79me2,reduced; also recorded: single agent both decrease H3K79me2
"Nc1ncn([C@@H]2O[C@H](CO)[C@@H](O)[C@H]2O)c(=O)n1 [Azacitidine, reference compound]",cellular differentiation (CD14+ differentiated cell population),ML-2 (MLL-AF6) cells [3],no effect
same,resistance of cell line to the agent,NOMO-1 (MLL-AF9) cells [4],resistant
same,inhibition of subcutaneous MV4-11 tumor compared to vehicle control,MV4-11 tumors,50%
same,MTD at 14 days,in vivo,2 mg/kg
same,cell death,ML-2 (MLL-AF6) cells [6],effect on cell death
same,cell death / cell kill,RS4;11 (MLL-AF4) cells [8],effect on cell death
same,cellular differentiation,RS4;11 (MLL-AF4) cells [10],no effect
same,cell death in a dose response experiment,MV4-11 (MLL-AF4) cells [11],AZA induces cell death in MV4-11 cells
